# Reference: US20100210596A1, “USE OF AMINOPYRIMIDINE COMPOUNDS IN THE TREATMENT OF IMMUNE DISORDERS” (priority 2006, published 2010)
# How the values were obtained:
# NOD mice [1] = experiment: Treatment of new onset diabetic NOD mice with Gleevec (remission of diabetes, blood glucose); type: in vivo, mouse
# Experimental: NOD mice were treated by gavage (oral) daily (M-F) with 50 mg/kg of commercially-available Gleevec suspended in peanut oil. Treatment was initiated at the time of disease onset (blood sugars above 250 mg/dl) and continued for the duration of the experiment.
# (§1) Further studies were carried out to determine if Gleevec could be discontinued and maintain its efficacy. New onset mice were treated as above for only 3 weeks after onset and examined for disease recurrence (FIG. 1B). […] of mice (7/8) went into remission during the 3 weeks of therapy. For the majority of mice, remission was short lived as 5/8 mice (FIG. 1B, solid circles) became hyperglycemic within 1-2 weeks after cessation of drug therapy. However, 3/8 mice (FIG. 1B, open circles) remained in remission more than 6 weeks after the last dose of Gleevec. […] Ten week old NOD mice were treated daily with Gleevec ([…]) or peanut oil and followed for disease incidence. None of the Gleevec-treated and 50% of the peanut oil-treated mice were diabetic at 18 weeks of age.
# Diabetic NOD mice (250-350 mg/dL) were treated with Gleevec for a short course (3 weeks) or longer courses (8-10 weeks) daily 3 times per week (3×/wk); and blood glucose assessed as described in Example 2. […] The majority of the daily, 8-10 week-treated group remained normal glycemic for >2 months after ending therapy. Peanut oil treatment had no effect in reversing diabetes.
# In another dosing regimen, NOD mice were treated with Gleevec (100 mg/kg) by daily oral gavage Monday through Friday for 2 weeks, followed by daily Gleevec (100 mg/kg) via oral gavage three times per week for 6 weeks. Four of 5 mice went into disease remission.
# NOD mice [2] = experiment: Gleevec prevention studies in pre-diabetic NOD mice (diabetes incidence by blood glucose); type: in vivo, mouse
# Experimental: as §1
# Pre-diabetic NOD mice were treated with Gleevec for 7 weeks starting at 12 weeks of age. The Gleevec was emulsified in peanut oil and given by gavage (100 mg/kg) daily. Control animals were treated with peanut oil alone. Mice were tested for diabetes based on blood glucose. Mice with two consecutive glucose readings of greater than 250 mg/dl were considered diabetic.
# [3] = test system: NOD mice injected with cyclophosphamide (CY); experiment: Cyclophosphamide model: diabetes incidence in CY-injected NOD mice; type: in vivo; settings: 14.5 week-old NOD mice, CY 300 mg/kg i.p., Gleevec 1.5 mg/mouse/day oral for 7 weeks; FIG. 3
# Experimental: 14.5 week-old NOD mice were injected intraperitoneally (i.p.) with cyclophosphamide (CY) (300 mg/kg) in conjunction with daily oral Gleevec therapy or control peanut oil. Gleevec treatment (1.5 mg/mouse/day) lasted 7 weeks. Mice were tested for diabetes based on blood glucose. Mice with two consecutive glucose readings of greater than 250 mg/dl were considered diabetic.
# [4] = 100 mg/kg oral gavage daily Monday-Friday for 2 weeks, then 100 mg/kg three times per week for 6 weeks
# [5] = new onset mice, 50 mg/kg oral daily for only 3 weeks after onset, FIG. 1B
smiles,measurement,setting,value
CS(=O)(=O)O.Cc1ccc(NC(=O)c2ccc(CN3CCN(C)CC3)cc2)cc1Nc1nccc(-c2cccnc2)n1 [Gleevec],mice going into remission,"NOD mice [1]; 50 mg/kg oral gavage daily (M-F) in peanut oil, started at disease onset (blood sugars above 250 mg/dl), continued for duration of experiment, FIG. 1A",All of the treated mice went into remission
same,relapse during the course of the study,"NOD mice [1]; 50 mg/kg oral gavage daily (M-F), continuous treatment from onset, FIG. 1A",none relapsed
same,mice that maintained normoglycemia for the duration of the experiment (>30 weeks after onset),NOD mice [1]; [4],Three of the 5
same,mice that went into disease remission (number of total),NOD mice [1]; [4],Four of 5
same,mice that remained in remission more than 6 weeks after the last dose (number/total),"NOD mice [1]; 3-week treatment, FIG. 1B open circles",3/8
same,mice that became hyperglycemic within 1-2 weeks after cessation of drug therapy (number/total),"NOD mice [1]; 3-week treatment, FIG. 1B solid circles",5/8
same,blood glucose levels maintained in treated mice,NOD mice [1]; NOD mice treated with Gleevec after onset,approximately 200 mg/dl
same,time the majority of the group remained normal glycemic after ending therapy,"NOD mice [1]; daily, 8-10 week-treated group",> 2 months
same,reversal of diabetes,"NOD mice [1]; diabetic NOD mice (250-350 mg/dL), all treatments: 3 weeks or 8-10 weeks, daily or 3x/wk",effective in reversing diabetes in the majority of mice
same,mice that went into remission during the 3 weeks of therapy (number/total),NOD mice [1]; [5],7/8
same,percent of mice that went into remission during the 3 weeks of therapy,NOD mice [1]; [5],Greater than 90%
same,long term maintenance (>20 week) of normoglycemia,NOD mice [1]; short course 3 weeks versus long course 8-10 weeks,less evident in short term 3 week treatment) than long term 8-10 week treated mice
same,percent of mice in which diabetes was prevented,"NOD mice [2]; pre-diabetic NOD mice, 100 mg/kg gavage daily for 7 weeks starting at 12 weeks of age, diabetic = two consecutive glucose readings >250 mg/dl, FIG. 2",90%
same,mice diabetic at 18 weeks of age,"NOD mice [2]; ten week old NOD mice treated daily (50 mg/ml as printed), preliminary experiments",None
same,incidence of diabetes versus peanut oil-treated CY-treated control,[3],significantly reduced
